Test results as given in patent publication US20220000734A1, “COMPOSITION AND METHOD OF STRENGTHENING SKIN BARRIER” (AMOREPACIFIC CORPORATION, priority 2018, published 2022).

Columns and labels:
Type in all cases: cell-based, human
[1] = test system: DSC1; assay: DSC1 gene expression in UVB-irradiated NHEK (Taqman real-time PCR); details: UVB 25 mJ/cm^2, 10 nM compound, fourth day of culture, FIG. 3
Experimental: (§1) Normal human epidermal keratinocytes (NHEK) were cultured in a 6-well plate incubator. 24 hours later, the normal human epidermal keratinocytes (NHEK) were cultured by replacing it with phosphate-buffered saline (PBS) and irradiating it with UVB (25 mJ/cm^2) and adding 10 nM of a compound represented by Chemical Formula 1-1 (Cayman Chemical) to the NHEK culture medium. On the fourth day of the culture, cells were harvested to separate RNA and synthesize cDNA through RT-PCR (a reverse transcriptional polymerase chain reaction), and the synthesized cDNA was used to perform Taqman real-time PCR and measure gene expression levels of a keratinocyte differentiation markers, KRT1 and KRT10, and a desmosome constituent factor, DSC1, and the results are shown in FIGS. 1 to 3.

[2] = test system: KRT10 (keratin 10); assay: KRT10 gene expression in UVB-irradiated NHEK (Taqman real-time PCR); details: UVB 25 mJ/cm^2, 10 nM compound, fourth day of culture, FIG. 2
Experimental: as §1

[3] = test system: KRT1 (keratin 1); assay: KRT1 gene expression in UVB-irradiated NHEK (Taqman real-time PCR); details: UVB 25 mJ/cm^2, 10 nM compound, fourth day of culture, FIG. 1
Experimental: as §1

CC/C=C/C/C=C\C[C@H](O)\C=C/C=C/C=C/[C@H](O)C/C=C\CCC(=O)O [Chemical Formula 1-1]
increased again: gene expression level of DSC1 [1] | gene expression level of KRT10 (keratin 10) [2] | gene expression level of KRT1 (keratin 1) [3]
